System: target weed species
Experiment: Water conditioning efficacy in greenhouse evaluation of isopropylamine glyphosate spray tank solutions in hard water
Assay type: in vivo
Details: aqueous spray tank solutions of isopropylamine glyphosate, standard hard water, absence of any surfactant, compared with ammonium sulfate
Procedure: Isethionic acid (Example 1) and ten neutralization products of isethionic acid (Examples 2-11) were used to treat aqueous spray tank solutions of isopropylamine glyphosate in order to measure the water conditioning efficacy of isethionic acid and the other isethionates. Isethionic acid was neutralized with sodium (Examples 2, 6, and 7), ammonia (Examples 3-5) and tallow amine ethoxylates (Examples 8-11—SURFONIC® T-5 surfactant). These candidates were evaluated against the standard agricultural water conditioner, ammonium sulfate in an aqueous tank mix of isopropylamine glyphosate (Control Example). Specifically, the candidates were tested for their ability to condition water as a function of the suppression of water hardness inhibition of pesticides, such as glyphosate. All evaluations were run in the absence of any surfactant in standard hard water as defined by the World Health Organization standard hard waters. The evaluations were run in greenhouse conditions over a variety of plant species, including determining injury to crop species. The reported data was percent control of target weed species and percent injury to crop species. All evaluations (except for one industry standard) were conducted in the absence of any surfactant.

Q: O=S(=O)(O)CCO [isethionic acid, Isethionic Acid] was tested. Which “water conditioning efficacy (suppression of water hardness inhibition of glyphosate)” value did it give?
A: The value was “functioned at a level comparable to that of the agricultural industry standard ammonium sulfate”.

Reference: patent US8859464B2, “Nitrogen containing isethionic acid salts in field ready spray and tank mixes” (Huntsman Petrochemical L LC, priority 2009, dated 2014)
